The results in this text go back to ChEMBL document CHEMBL1275575, “Susceptibility of Mycobacterium bovis BCG vaccine strains to antituberculous antibiotics” (Antimicrob Agents Chemother, 2009).

In brackets after ≈: the same amount, converted by molar mass.

Assay type in all cases: functional
In test [1] the test system is Mycobacterium tuberculosis variant bovis. Description: Antibacterial activity against Mycobacterium bovis BCG-Connaught.
The test system is the same in test [2]. Description: Antibacterial activity against Mycobacterium bovis BCG-Pasteur.
Test [3] shares this test system. Description: Antibacterial activity against Mycobacterium bovis BCG-Denmark.
Test [4] shares this test system. Description: Antibacterial activity against Mycobacterium bovis BCG-Moreau.
For test [5] the test system is unchanged. Description: Antibacterial activity against Mycobacterium bovis BCG-Glaxo.
The test system is the same in test [6]. Description: Antibacterial activity against Mycobacterium bovis BCG-japan.
Test [7] shares this test system. Description: Antibacterial activity against Mycobacterium bovis BCG-Russia.
Test [8] has the same test system. Description: Antibacterial activity against Mycobacterium bovis BCG-Connaught by Wayne's indirect method.

With `NCC[C@H](O)C(=O)N[C@@H]1C[C@H](N)[C@@H](O[C@H]2O[C@H](CN)[C@@H](O)[C@H](O)[C@H]2O)[C@H](O)[C@H]1O[C@H]1O[C@H](CO)[C@@H](O)[C@H](N)[C@H]1O` [AMIKACIN], in test [1], 0.125 µg/mL (≈ 0.213 µM) was the least that counted as inhibitory (MIC).

As for `CC[C@H]1OC(=O)[C@H](C)[C@@H](O[C@H]2C[C@@](C)(OC)[C@@H](O)[C@H](C)O2)[C@H](C)[C@@H](O[C@@H]2O[C@H](C)C[C@H](N(C)C)[C@H]2O)[C@](C)(O)C[C@@H](C)CN(C)[C@H](C)[C@@H](O)[C@]1(C)O` [AZITHROMYCIN], the MIC – broadly, the lowest concentration that inhibits growth of the organism – stood at 16 µg/mL (≈ 21.4 µM) in test [1] and 1 µg/mL (≈ 1.34 µM) in test [2].

`O=C(O)c1cn(C2CC2)c2cc(N3CCNCC3)c(F)cc2c1=O` [CIPROFLOXACIN] came in with an MIC in test [1] of 0.125 µg/mL (≈ 0.377 µM).

Take `CC[C@H]1OC(=O)[C@H](C)[C@@H](O[C@H]2C[C@@](C)(OC)[C@@H](O)[C@H](C)O2)[C@H](C)[C@@H](O[C@@H]2O[C@H](C)C[C@H](N(C)C)[C@H]2O)[C@](C)(OC)C[C@@H](C)C(=O)[C@H](C)[C@@H](O)[C@]1(C)O` [CLARITHROMYCIN]: the MIC stood at 0.25 µg/mL (≈ 0.334 µM) in test [1]; 0.07 µg/mL (≈ 0.0936 µM) in test [3]; 2 µg/mL (≈ 2.67 µM) in test [4]; 0.3 µg/mL (≈ 0.401 µM) in test [2]; 0.15 µg/mL (≈ 0.201 µM) in test [5].

`CC[C@H]1OC(=O)[C@H](C)[C@@H](O[C@H]2C[C@@](C)(OC)[C@@H](O)[C@H](C)O2)[C@H](C)[C@@H](O[C@@H]2O[C@H](C)C[C@H](N(C)C)[C@H]2O)[C@](C)(O)C[C@@H](C)C(=O)[C@H](C)[C@@H](O)[C@]1(C)O` [ERYTHROMYCIN]: the figures for the MIC in test [1], in test [4] and in test [2] were 16 µg/mL (≈ 21.8 µM), 128 µg/mL (≈ 174 µM) and 4 µg/mL (≈ 5.45 µM), respectively.

Take `CC[C@@H](CO)NCCN[C@@H](CC)CO` [ETHAMBUTOL]: the MIC in test [1] came to 2 µg/mL (≈ 9.79 µM); in test [3] it was 2.5 µg/mL (≈ 12.2 µM); in test [6], 2 µg/mL (≈ 9.79 µM); in test [5] it was 2.5 µg/mL (≈ 12.2 µM).

Take `CCc1cc(C(N)=S)ccn1` [ETHIONAMIDE]: in test [1], 4 µg/mL (≈ 24.1 µM) was the least that counted as inhibitory (MIC).

`NNC(=O)c1ccncc1` [ISONIAZID]: the MIC stood at 0.125 µg/mL (≈ 0.911 µM) in test [1], 0.4 µg/mL (≈ 2.92 µM) in test [3], 0.06 µg/mL (≈ 0.438 µM) in test [6] and 0.1 µg/mL (≈ 0.729 µM) in test [2].

Consider `NC[C@H]1O[C@H](O[C@H]2[C@H](O)[C@@H](O[C@H]3O[C@H](CO)[C@@H](O)[C@H](N)[C@H]3O)[C@H](N)C[C@@H]2N)[C@H](O)[C@@H](O)[C@@H]1O` [KANAMYCIN], for which it took 1 µg/mL (≈ 2.06 µM) to inhibit growth in test [1] (MIC).

As for `CC1COc2c(N3CCN(C)CC3)c(F)cc3c(=O)c(C(=O)O)cn1c23` (stereo unspecified) [OFLOXACIN], the MIC is 1 µg/mL (≈ 2.77 µM) in test [7], less than 0.031 µg/mL in test [1], 0.75 µg/mL (≈ 2.08 µM) in test [3] and 0.75 µg/mL (≈ 2.08 µM) in test [2].

`NC(=O)c1cnccn1` [PYRAZINAMIDE] came in with an MIC in test [8] of more than 800 µg/mL.

With `CO[C@H]1/C=C/O[C@@]2(C)Oc3c(C)c(O)c4c(c3C2=O)C2=NC3(CCN(CC(C)C)CC3)NC2=C(NC(=O)/C(C)=C\C=C\[C@H](C)[C@H](O)[C@@H](C)[C@@H](O)[C@@H](C)[C@H](OC(C)=O)[C@@H]1C)C4=O` [RIFABUTIN], the MIC in test [1] was found to be 0.063 µg/mL (≈ 0.0744 µM); in test [3] it was 0.016 µg/mL (≈ 0.0189 µM); in test [6], 0.063 µg/mL (≈ 0.0744 µM); in test [2], 0.063 µg/mL (≈ 0.0744 µM); in test [5], 0.016 µg/mL (≈ 0.0189 µM).

On to `CO[C@H]1/C=C/O[C@@]2(C)Oc3c(C)c(O)c4c(O)c(c(/C=N/N5CCN(C)CC5)c(O)c4c3C2=O)NC(=O)/C(C)=C\C=C\[C@H](C)[C@H](O)[C@@H](C)[C@@H](O)[C@@H](C)[C@H](OC(C)=O)[C@@H]1C` [RIFAMPIN], for which the MIC in test [1] is less than 0.031 µg/mL; in test [3] it was 0.016 µg/mL (≈ 0.0194 µM); in test [6], 0.063 µg/mL (≈ 0.0766 µM); in test [2], 0.063 µg/mL (≈ 0.0766 µM); in test [5] it was 0.031 µg/mL (≈ 0.0377 µM).

Take `CN[C@@H]1[C@H](O[C@H]2[C@H](O[C@H]3[C@H](O)[C@@H](O)[C@H](N=C(N)N)[C@@H](O)[C@@H]3N=C(N)N)O[C@@H](C)[C@]2(O)C=O)O[C@@H](CO)[C@H](O)[C@H]1O` [STREPTOMYCIN]: the MIC in test [1] is 0.25 µg/mL (≈ 0.43 µM); in test [3] it was 2 µg/mL (≈ 3.44 µM); in test [6], 0.25 µg/mL (≈ 0.43 µM); in test [5], 2 µg/mL (≈ 3.44 µM).
